Data: patent publication US11453690B2, “Receptor inhibitor, pharmaceutical composition comprising same, and use thereof” (BEIJING TIDE PHARMACEUTICAL CO., LTD., priority 2018, dated 2022)

Molecular target: AT2 Receptor (AT2R) (Homo sapiens (Human), UniProt P50052)
Test: Measurement of inhibitory activity on AT2 receptor (Tag-lite HTRF, Tb-labeled AT2R cells, angiotensin receptor red agonist)
Type: binding
Settings: 1 h room temperature
Protocol: Measurement of Inhibitory Activity on AT1 Receptor ([…])/AT2 Receptor (AT2R)
Through the following steps, the inhibitory activity of the compound on AT1R/AT2R (IC50 value) was determined:
1) An appropriate amount of 1×TLB (Tag-lite Buffer) was prepared and well mixed for use.
2) The compound was diluted by 10 times with ddH2O or DMSO. The compound was then dilute to 4 times of the working concentration with 1×TLB and mixed well for use.
3) 8600 nM Tag-lite angiotensin receptor red agonist was diluted to 12 nM (4×Kd) with 1×TLB.
4) 5 ml 1×TLB was taken into a 15 ml centrifuge tube.
5) After thawing 1 tube of Tb-labeled AT1R/AT2R cells in a 37° C. water bath, the cells were quickly transferred to the 1×TLB in step 4), mixed gently, and centrifuged at 1200 g for 5 minutes at room temperature.
6) The supernatant was aspirated gently, and the cells were resuspended and mixed in 2.7 ml 1×TLB, and then placed at room temperature until use.
7) 10 μl cells were added to all test wells, and 5 μl 4× working solution of the compound from step 2) was added to the corresponding test wells. 5 μl 4× Tag-lite angiotensin receptor red agonist well diluted in step 3) was added to all test wells.
8) After leaving the reaction plate at room temperature for 1 h, data were measured and analyzed using Envision HTRF Reader, and the half inhibitory concentration (IC50) of the compound on AT1R/AT2R was calculated with the GraphPad Prism four-parameter equation.

Chain of AT2 Receptor (AT2R) (P50052 whole entry): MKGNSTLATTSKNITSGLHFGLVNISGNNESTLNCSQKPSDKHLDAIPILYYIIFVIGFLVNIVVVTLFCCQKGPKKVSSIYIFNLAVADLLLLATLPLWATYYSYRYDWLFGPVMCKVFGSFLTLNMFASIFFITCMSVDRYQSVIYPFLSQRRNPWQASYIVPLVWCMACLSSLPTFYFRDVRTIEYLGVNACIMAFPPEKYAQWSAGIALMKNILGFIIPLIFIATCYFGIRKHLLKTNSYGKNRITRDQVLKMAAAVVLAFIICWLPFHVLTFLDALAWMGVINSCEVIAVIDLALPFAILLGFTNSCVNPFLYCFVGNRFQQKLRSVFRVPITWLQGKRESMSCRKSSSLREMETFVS

| Structure (SMILES) | IC50 |
| --- | --- |
| O=C(O)[C@@H]1[C@H]2CC[C@@H](CN1C(=O)N(c1ccccc1)c1ccccc1)N2C(=O)N(Cc1ccccc1)Cc1ccccc1 [Compound C133, (1R,2S,5S)-8-(dibenzylcarbamoyl)-3-(diphenylcarbamoyl)-3,8-diazabicyclo[3.2.1] octane-2-carboxylic acid] | 243 nM |
| O=C(O)[C@@H]1[C@H]2CC[C@@H](CN1C(=O)N(c1ccccc1)c1ccccc1)N2C(=O)N(Cc1ccccc1)c1ccccc1 [Compound C134, (1R,2S,5S)-8-(benzyl(phenyl)carbamoyl)-3-(diphenylcarbamoyl)-3,8-diazabicyclo [3.2.1]octane-2-carboxylic acid] | 322 nM |
| O=C(O)[C@@H]1[C@H]2CC[C@@H](CN1C(=O)N(c1ccccc1)c1ccccc1)N2C(=O)N1CCCC1c1ccccc1 (stereo partly drawn) [Compound C138, (1R,2S,5S)-3-(diphenylcarbamoyl)-8-(2-phenylpyrrolidine-1-carbonyl)-3,8-diazabicyclo[3.2.1] octane-2-carboxylic acid] | 11.7 nM |
| O=C(O)[C@@H]1[C@H]2CC[C@@H](CN1C(=O)N(c1ccccc1)c1ccccc1)N2C(=O)N1CCC[C@@H]1c1ccccc1 [Compound C140, (1R,2S,5S)-3-(diphenylcarbamoyl)-8-((R)-2-phenylpyrrolidine-1-carbonyl)-3,8-diazabicyclo [3.2.1]octane-2-carboxylic acid] | 5.49 nM |
| O=C(O)[C@@H]1[C@H]2CC[C@@H](CN1C(=O)N(c1ccccc1)c1ccccc1)N2C(=O)N1CCC[C@@H]1c1cc(F)ccc1F [Compound C141, (1R,2S,5S)-8-((R)-2-(2,5-difluorophenyl)pyrrolidine-1-carbonyl)-3-(diphenylcarbamoyl)-3,8-diazabicyclo [3.2.1]octane-2-carboxylic acid] | 7.99 nM |
| O=C(O)[C@@H]1[C@H]2CC[C@@H](CN1C(=O)N(c1ccccc1)c1ccccc1)N2C(=O)N1CCC[C@H]1c1cc(F)ccc1F [Compound C142, (1R,2S,5S)-8-((S)-2-(2,5-difluorophenyl)pyrrolidine-1-carbonyl)-3-(diphenylcarbamoyl)-3,8-diazabicyclo [3.2.1]octane-2-carboxylic acid] | 654 nM |
| Cc1ccc([C@H]2CCCN2C(=O)N2[C@H]3CC[C@@H]2[C@@H](C(=O)O)N(C(=O)N(c2ccccc2)c2ccccc2)C3)cc1 [Compound C143, (1R,2S,5S)-3-(diphenylcarbamoyl)-8-((R)-2-(p-tolyl)pyrrolidine-1-carbonyl)-3,8-diazabicyclo [3.2.1]octane-2-carboxylic acid] | 9.97 nM |
| O=C(O)[C@@H]1[C@H]2CC[C@@H](CN1C(=O)N(c1ccccc1)c1ccccc1)N2C(=O)N(c1ccc(F)cc1)c1ccc(F)cc1 [Compound C145, (1R,2S,5S)-8-(bis(4-fluorophenyl)carbamoyl)-3-(diphenylcarbamoyl)-3,8-diazabicyclo [3.2.1]octane-2-carboxylic acid] | 110 nM |
| O=C(O)[C@@H]1[C@H]2CC[C@@H](CN1C(=O)N(c1ccccc1)c1ccccc1)N2C(=O)N1CCCCC1c1ccccc1 (stereo partly drawn) [Compound C146, (1R,2S,5S)-3-(diphenylcarbamoyl)-8-(2-phenylpiperidine-1-carbonyl)-3,8-diazabicyclo [3.2.1]octane-2-carboxylic acid] | 14 nM |
| CN(CC1CCCCC1)C(=O)N1[C@H]2CC[C@@H]1[C@@H](C(=O)O)N(C(=O)N(c1ccccc1)c1ccccc1)C2 [Compound C147, (1R,2S,5S)-8-((cyclohexylmethyl) (methyl)carbamoyl)-3-(diphenylcarbamoyl)-3,8-diazabicyclo [3.2.1]octane-2-carboxylic acid] | 111 nM |
| CN(Cc1cccc(Cl)c1)C(=O)N1[C@H]2CC[C@@H]1[C@@H](C(=O)O)N(C(=O)N(c1ccccc1)c1ccccc1)C2 [Compound C151, (1R,2S,5S)-8-((3-chlorobenzyl) (methyl)carbamoyl)-3-(diphenylcarbamoyl)-3,8-diazabicyclo [3.2.1]octane-2-carboxylic acid] | 74.3 nM |
| CC(C)N(Cc1ccccc1)C(=O)N1[C@H]2CC[C@@H]1[C@@H](C(=O)O)N(C(=O)N(c1ccccc1)c1ccccc1)C2 [Compound C152, (1R,2S,5S)-8-(benzyl (isopropyl)carbamoyl)-3-(diphenylcarbamoyl)-3,8-diazabicyclo [3.2.1]octane-2-carboxylic acid] | 47.4 nM |
| O=C(O)[C@@H]1[C@H]2CC[C@@H](CN1C(=O)N(c1ccccc1)c1ccccc1)N2C(=O)N(Cc1ccccc1)C1CC1 [Compound C153, (1R,2S,5S)-8-(benzyl (cyclopropyl)carbamoyl)-3-(diphenylcarbamoyl)-3,8-diazabicyclo [3.2.1]octane-2-carboxylic acid] | 2.78 nM |
| O=C(O)[C@@H]1[C@H]2CC[C@@H](CN1C(=O)N(c1ccccc1)c1ccccc1)N2C(=O)N(Cc1ccccc1)CC1CC1 [Compound C154, (1R,2S,5S)-8-(benzyl (cyclopropylmethyl)carbamoyl)-3-(diphenylcarbamoyl)-3,8-diazabicyclo [3.2.1]octane-2-carboxylic acid] | 19.8 nM |
| CCN(Cc1ccccc1F)C(=O)N1[C@H]2CC[C@@H]1[C@@H](C(=O)O)N(C(=O)N(c1ccccc1)c1ccccc1)C2 [Compound C156, (1R,2S,5S)-3-(diphenylcarbamoyl)-8-(ethyl(2-fluorobenzyl)carbamoyl)-3,8-diazabicyclo [3.2.1]octane-2-carboxylic acid] | 10.1 nM |
| CN(Cc1ccc(F)cc1)C(=O)N1[C@H]2CC[C@@H]1[C@@H](C(=O)O)N(C(=O)N(c1ccccc1)c1ccccc1)C2 [Compound C161, (1R,2S,5S)-3-(diphenylcarbamoyl)-8-((4-fluorobenzyl) (methyl)carbamoyl)-3,8-thazabicyclo [3.2.1]octane-2-carboxylic acid] | 30.5 nM |
| Cc1ccccc1CN(C)C(=O)N1[C@H]2CC[C@@H]1[C@@H](C(=O)O)N(C(=O)N(c1ccccc1)c1ccccc1)C2 [Compound C163, (1R,2S,5S)-3-(diphenylcarbamoyl)-8-(methyl (2-methylbenzyl)carbamoyl)-3,8-diazabicyclo [3.2.1]octane-2-carboxylic acid] | 65.6 nM |
| CCc1ccc(CN(C)C(=O)N2[C@H]3CC[C@@H]2[C@@H](C(=O)O)N(C(=O)N(c2ccccc2)c2ccccc2)C3)cc1 [Compound C164, (1R,2S,5S)-3-(diphenylcarbamoyl)-8-((4-ethylbenzyl) (methyl)carbamoyl)-3,8-diazabicyclo[3.2.1] octane-2-carboxylic acid] | 4.35 nM |
| CN(Cc1ccc(Br)cc1)C(=O)N1[C@H]2CC[C@@H]1[C@@H](C(=O)O)N(C(=O)N(c1ccccc1)c1ccccc1)C2 [Compound C165, (1R,2S,5S)-8-((4-bromobenzyl) (methyl)carbamoyl)-3-(diphenylcarbamoyl)-3,8-diazabicyclo [3.2.1]octane-2-carboxylic acid] | 14 nM |
| CN(Cc1ccc(C(F)(F)F)cc1)C(=O)N1[C@H]2CC[C@@H]1[C@@H](C(=O)O)N(C(=O)N(c1ccccc1)c1ccccc1)C2 [Compound C169] | 7.26 nM |
| C=Cc1ccc(CN(C)C(=O)N2[C@H]3CC[C@@H]2[C@@H](C(=O)O)N(C(=O)N(c2ccccc2)c2ccccc2)C3)cc1 [Compound C170, (1R,2S,5S)-3-(diphenylcarbamoyl)-8-(methyl(4-vinylbenzyl)carbamoyl)-3,8-diazabicyclo[3.2.1] octane-2-carboxylic acid] | 3.87 nM |
| C#Cc1ccc(CN(C)C(=O)N2[C@H]3CC[C@@H]2[C@@H](C(=O)O)N(C(=O)N(c2ccccc2)c2ccccc2)C3)cc1 [Compound C171, (1R,2S,5S)-3-(diphenylcarbamoyl)-8-((4-ethynylbenzyl) (methyl)carbamoyl)-3,8-diazabicyclo [3.2.1]octane-2-carboxylic acid] | 19.2 nM |
| CN(Cc1ccccc1)C(=O)N1[C@H]2CC[C@@H]1[C@@H](C(=O)O)N(C(=O)C(C)(c1ccccc1)c1ccccc1)C2 [Compound C173, (1R,2S,5S)-8-(benzyl(methyl)carbamoyl)-3-(2,2-diphenylpropionyl)-3,8-diazabicyclo [3.2.1]octane-2-carboxylic acid] | 5.57 nM |
| O=C(O)[C@@H]1[C@H]2CC[C@@H](CN1C(=O)N(c1ccccc1)c1ccccc1)N2C(=O)/C=C/c1ccccc1 [Compound C174, (1R,2S,5S)-8-cinnamoyl-3-(diphenylcarbamoyl)-3,8-diazabicyclo [3.2.1]octane-2-carboxylic acid] | 226 nM |
| O=C(O)[C@@H]1[C@H]2CC[C@@H](CN1C(=O)N(c1ccccc1)c1ccccc1)N2S(=O)(=O)c1ccccc1 [Compound C182, (1R,2S,5S)-3-(diphenylcarbamoyl)-8-(phenylsulfulyl)-3,8-diazabicyclo [3.2.l]octane-2-carboxylic acid] | 432 nM |
| Cc1cc(CN(C)C(=O)N2[C@H]3CC[C@@H]2[C@@H](C(=O)O)N(C(=O)N(c2ccccc2)c2ccccc2)C3)cs1 [Compound C185] | 38.8 nM |
| CN(Cc1csc(Cl)c1)C(=O)N1[C@H]2CC[C@@H]1[C@@H](C(=O)O)N(C(=O)N(c1ccccc1)c1ccccc1)C2 [Compound C186, (1R,2S,5S)-8-(((5-chlorothiophene-3-yl)methyl) (methyl)carbamoyl)-3-(diphenylcarbamoyl)-3,8-diazabicyclo [3.2.1]octane-2-carboxylic acid] | 64.6 nM |
